For one data set, the target named is PI3K-δ in RAJI cells (Homo sapiens (Human), UniProt O00329). Put plainly: RAJI p110 δ assay (PI3K-δ selective cellular assay, phospho-AKT). Type of data set: cell-based. The note with it: read-out: Cellular IC50 δ.
The test system of a further data set is human T cells. Put plainly: Concanavalin A-induced model for activation of human T cells (IFN-γ). It is filed as cell-based.
The subject of data set [1] is CXCL12 induced p-AKT in polarized bone marrow derived macrophages. Put plainly: CXCL12-induced p-AKT induction assay in differentiated macrophages. Type of data set: cell-based, mouse. The source says: Macrophage Differentiation and Polarization: Long bones from young C57B6 mice were harvested and bone marrow was extruded by gentle lavage of the bone marrow cavities with a 28 gauge needle. Red blood cells were removed using red blood cell lysis buffer (Sigma). Bone marrow cells were differentiated to macrophages using MCSF for 6 days (RPMI and 20% FCS) with one media change (with removal of all non-adherent cells) at day 3. Macrophages were polarized into MO (MCSF), M1 (MCSF, IFNγ, and LPS for 1 day), or M2 (MCSF, IL4 for 2 days).
CXCL12-Induced p-AKT Induction Assay: Polarized macrophages were lifted with Acutase, and plated at 0.5M cells per well (0.5 ml) in a deep well (2 ml) non adherant plate in polarization media for 1 hour. […] CXCL12 was added, and the cells were mixed on a plate shaker for 2 minutes. 1 ml of 37 degree FACS Lyse/fix buffer (BD bioscience) was added and the plate was mixed for 1 minute. The plates were spun and decanted and frozen at −80° C. Phospho AKT staining with anti Phospho AKT 473 PERCP labeled (Cell Signaling Technologies) was performed and measured by flow cytometry. Total cell MFI was used to calculate the effect of tested compound on CXCL12 induction of phospho AKT.

Data set [2] can be described thus: Oral PK in the rat LPS studies (free plasma concentration). The note with it: for concentration at 1.5 h / concentration at […]: plasma, po, read-out: Free Plasma Conc; for concentration at […]: 5.5h. It is filed as in vivo. The procedure: (§1) This study also includes assessment of the exposure to the compounds in plasma and lung tissues.
(§2) Ref C is budesonide p.o. The compound was administered p.o. and about 1 hour later, LPS was administered intra-tracheally and plasma was collected. After about 5 hours, plasma and bronchoalveolar lavage samples were collected.

Data set [3] deals with IL-8 induced neutrophil migration. Put plainly: IL-8 driven murine air pouch model. Particulars: mouse air pouch; BB 0.1-3 mg/kg, AA 10-50 mg/kg.
The target in the next data set is PI3K-β in 786-O cells (Homo sapiens (Human), UniProt P42338). Put plainly: PI3K-β selective cellular assay (phospho-AKT). It is filed as cell-based.
The target in the next data set is PI3K-delta (Homo sapiens (Human), UniProt O00329). The note with it: as described in Table 4 of WO2013/032591; cited from earlier work.
For a further data set, the target named is PI3K-α in SKOV-3 cells (Homo sapiens (Human), UniProt P42336, H1047R). Put plainly: PI3K-α selective cellular assay (phospho-AKT). Type of data set: cell-based.
Data set [4] has as its system LPS induced neutrophil influx in bronchoalveolar lavage fluid. Put plainly: LPS-induced neutrophilia, oral administration. Type of data set: in vivo. The note with it: rat, p.o., 4 hours post-LPS challenge, dose dependent. The procedure:
as §1, §2

A further data set has as its target PI3K δ (Homo sapiens (Human), UniProt O00329). Put plainly: PI3-Kinase Promega ADP-Glo Max assay. It is filed as biochemical. Particulars: IC50 against PI3K gamma divided by IC50 against PI3K delta. For orientation: ADP-Glo turns the ADP formed in a reaction into a luminescent signal.
The target in data set [5] is PI3K-γ in RAW264.7 macrophages (Mus musculus (Mouse), UniProt Q9JHG7). Put plainly: Raw264.7 p110 γ assay (PI3K-γ selective cellular assay, C5a-stimulated phospho-AKT). Particulars: read-out: Cellular IC50 γ. It is filed as cell-based.
From the text: Briefly, serum-starved RAW264.7 cells are stimulated with a known GPCR agonist C5a. […] Cells can be treated with test compounds prior to, simultaneously with, or subsequent to the stimulation by C5a. RAW 264.7 cells respond to the complement component fragment C5a through activation of the C5a receptor, and the C5a receptor activates macrophages and induces cell migration.

Read-outs that look alike come from different tables or passages of the source.

One may read the IC50 as the point on the concentration scale where inhibition reaches its midpoint.

Sequence of PI3K δ (O00329 whole entry): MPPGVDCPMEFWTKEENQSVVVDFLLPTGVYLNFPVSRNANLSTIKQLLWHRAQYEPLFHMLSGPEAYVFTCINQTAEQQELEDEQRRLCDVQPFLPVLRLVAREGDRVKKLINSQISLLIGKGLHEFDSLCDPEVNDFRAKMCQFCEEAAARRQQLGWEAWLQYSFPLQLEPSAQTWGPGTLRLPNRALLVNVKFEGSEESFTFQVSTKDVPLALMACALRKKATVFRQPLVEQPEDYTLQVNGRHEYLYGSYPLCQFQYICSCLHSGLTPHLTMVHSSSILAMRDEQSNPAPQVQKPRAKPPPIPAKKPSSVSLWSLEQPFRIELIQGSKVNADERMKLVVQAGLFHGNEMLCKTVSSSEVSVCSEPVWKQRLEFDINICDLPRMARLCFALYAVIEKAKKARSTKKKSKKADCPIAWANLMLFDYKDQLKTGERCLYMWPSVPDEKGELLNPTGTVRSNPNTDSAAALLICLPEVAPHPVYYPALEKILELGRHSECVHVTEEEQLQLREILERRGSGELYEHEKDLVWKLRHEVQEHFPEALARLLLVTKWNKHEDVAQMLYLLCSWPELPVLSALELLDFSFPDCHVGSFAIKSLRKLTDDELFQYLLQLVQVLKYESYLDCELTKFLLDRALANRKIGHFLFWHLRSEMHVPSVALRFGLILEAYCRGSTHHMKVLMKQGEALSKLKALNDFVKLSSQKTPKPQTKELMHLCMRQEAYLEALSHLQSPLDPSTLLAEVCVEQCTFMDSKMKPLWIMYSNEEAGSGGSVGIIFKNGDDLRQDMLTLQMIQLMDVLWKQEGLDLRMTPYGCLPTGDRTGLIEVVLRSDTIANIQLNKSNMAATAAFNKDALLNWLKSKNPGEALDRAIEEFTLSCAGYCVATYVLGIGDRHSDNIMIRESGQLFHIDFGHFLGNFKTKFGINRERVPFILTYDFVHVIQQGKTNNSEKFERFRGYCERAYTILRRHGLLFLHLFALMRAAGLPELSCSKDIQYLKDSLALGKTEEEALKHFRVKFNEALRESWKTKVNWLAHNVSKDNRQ
Sequence of PI3K δ (P27986 whole entry partner): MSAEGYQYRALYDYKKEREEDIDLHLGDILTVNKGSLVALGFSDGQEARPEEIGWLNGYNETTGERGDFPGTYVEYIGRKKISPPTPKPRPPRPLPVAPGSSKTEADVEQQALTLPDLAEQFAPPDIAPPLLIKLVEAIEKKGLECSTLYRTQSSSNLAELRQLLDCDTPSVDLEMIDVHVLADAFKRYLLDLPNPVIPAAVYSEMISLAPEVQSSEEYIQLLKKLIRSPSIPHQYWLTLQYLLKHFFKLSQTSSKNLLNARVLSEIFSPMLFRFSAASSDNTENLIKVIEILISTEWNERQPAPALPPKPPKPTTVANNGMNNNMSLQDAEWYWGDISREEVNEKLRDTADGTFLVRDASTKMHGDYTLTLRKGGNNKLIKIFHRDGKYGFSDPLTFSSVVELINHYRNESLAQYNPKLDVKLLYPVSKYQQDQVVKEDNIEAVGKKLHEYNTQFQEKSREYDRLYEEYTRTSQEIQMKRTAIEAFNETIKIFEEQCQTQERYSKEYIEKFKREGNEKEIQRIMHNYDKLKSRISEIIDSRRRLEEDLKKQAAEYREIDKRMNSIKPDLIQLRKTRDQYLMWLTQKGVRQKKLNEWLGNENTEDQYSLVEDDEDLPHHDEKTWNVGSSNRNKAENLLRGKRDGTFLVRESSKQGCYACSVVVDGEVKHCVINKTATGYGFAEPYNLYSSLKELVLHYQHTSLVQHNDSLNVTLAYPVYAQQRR
Sequence of PI3K-δ in RAJI cells (O00329 whole entry): as the sequence (O00329 whole entry) above
Sequence of PI3K-δ in RAJI cells (P27986 whole entry partner): as the sequence (P27986 whole entry partner) above
Sequence of PI3K-delta (O00329 whole entry, species assumed): as the sequence (O00329 whole entry) above
Sequence of PI3K-delta (P27986 whole entry partner, species assumed): as the sequence (P27986 whole entry partner) above
Sequence of PI3K-γ in RAW264.7 macrophages (Q9JHG7 whole entry): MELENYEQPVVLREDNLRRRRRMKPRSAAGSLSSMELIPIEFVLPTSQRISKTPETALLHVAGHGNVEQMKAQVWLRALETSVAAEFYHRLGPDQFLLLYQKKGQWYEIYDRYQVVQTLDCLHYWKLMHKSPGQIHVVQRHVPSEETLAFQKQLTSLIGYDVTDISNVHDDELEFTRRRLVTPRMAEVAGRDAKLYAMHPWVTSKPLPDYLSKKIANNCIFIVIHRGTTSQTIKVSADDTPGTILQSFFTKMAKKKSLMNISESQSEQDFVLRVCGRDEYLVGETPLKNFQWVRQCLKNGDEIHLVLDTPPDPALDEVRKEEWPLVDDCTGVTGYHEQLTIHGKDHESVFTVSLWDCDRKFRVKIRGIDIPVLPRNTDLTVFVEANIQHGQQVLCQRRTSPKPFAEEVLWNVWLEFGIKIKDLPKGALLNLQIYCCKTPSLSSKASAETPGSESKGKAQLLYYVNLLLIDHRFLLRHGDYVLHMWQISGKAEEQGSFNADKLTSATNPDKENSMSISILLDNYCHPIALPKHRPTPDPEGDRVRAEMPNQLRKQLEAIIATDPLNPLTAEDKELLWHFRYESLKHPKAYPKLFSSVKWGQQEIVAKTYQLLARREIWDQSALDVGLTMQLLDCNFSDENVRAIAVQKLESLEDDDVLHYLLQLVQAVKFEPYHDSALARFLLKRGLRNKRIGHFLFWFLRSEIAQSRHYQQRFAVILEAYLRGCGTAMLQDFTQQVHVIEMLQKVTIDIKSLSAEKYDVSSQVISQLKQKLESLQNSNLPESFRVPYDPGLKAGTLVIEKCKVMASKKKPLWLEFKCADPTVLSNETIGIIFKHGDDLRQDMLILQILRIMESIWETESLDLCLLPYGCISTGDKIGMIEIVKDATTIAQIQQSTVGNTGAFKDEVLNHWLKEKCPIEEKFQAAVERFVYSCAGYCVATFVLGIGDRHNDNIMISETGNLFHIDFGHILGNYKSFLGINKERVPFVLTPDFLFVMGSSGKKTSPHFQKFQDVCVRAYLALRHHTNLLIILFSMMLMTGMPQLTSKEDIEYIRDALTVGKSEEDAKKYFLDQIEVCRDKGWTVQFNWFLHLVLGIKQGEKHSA
Sequence of PI3K-α in SKOV-3 cells (P42336 whole entry H1047R): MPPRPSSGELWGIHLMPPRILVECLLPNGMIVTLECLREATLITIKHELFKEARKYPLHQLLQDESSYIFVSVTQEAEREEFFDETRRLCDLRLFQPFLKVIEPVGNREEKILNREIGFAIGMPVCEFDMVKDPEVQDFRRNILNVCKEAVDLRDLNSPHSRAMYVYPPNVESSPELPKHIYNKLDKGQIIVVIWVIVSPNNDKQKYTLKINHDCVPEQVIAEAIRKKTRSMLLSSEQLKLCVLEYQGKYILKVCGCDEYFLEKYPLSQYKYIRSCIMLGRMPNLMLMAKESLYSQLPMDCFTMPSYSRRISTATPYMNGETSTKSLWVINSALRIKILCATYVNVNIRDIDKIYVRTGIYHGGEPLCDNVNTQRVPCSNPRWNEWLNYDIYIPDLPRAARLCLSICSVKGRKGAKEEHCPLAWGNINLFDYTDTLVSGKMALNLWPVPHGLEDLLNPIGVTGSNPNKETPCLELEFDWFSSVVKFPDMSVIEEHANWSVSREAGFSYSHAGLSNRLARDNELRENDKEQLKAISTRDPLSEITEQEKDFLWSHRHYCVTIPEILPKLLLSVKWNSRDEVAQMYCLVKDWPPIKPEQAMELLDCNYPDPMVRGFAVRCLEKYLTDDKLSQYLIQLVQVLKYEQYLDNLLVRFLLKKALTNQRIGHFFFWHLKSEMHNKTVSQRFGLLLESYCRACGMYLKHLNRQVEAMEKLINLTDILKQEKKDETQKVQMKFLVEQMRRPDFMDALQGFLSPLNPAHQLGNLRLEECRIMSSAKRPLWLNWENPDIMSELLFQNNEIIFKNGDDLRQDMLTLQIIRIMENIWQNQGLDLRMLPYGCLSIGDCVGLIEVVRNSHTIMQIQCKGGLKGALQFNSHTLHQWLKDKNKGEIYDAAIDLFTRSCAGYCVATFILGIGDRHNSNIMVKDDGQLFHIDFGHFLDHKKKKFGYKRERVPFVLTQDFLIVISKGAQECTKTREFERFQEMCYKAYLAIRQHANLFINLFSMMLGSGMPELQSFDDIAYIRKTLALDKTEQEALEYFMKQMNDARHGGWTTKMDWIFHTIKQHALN
Sequence of PI3K-α in SKOV-3 cells (P27986 whole entry partner): as the sequence (P27986 whole entry partner) above
Method for PI3K δ: Promega ADP-Glo Max assay kit (Cat. No. V7002) was utilized to determine IC50 values for α, β, δ and γ isoforms of human Class I PI3 kinases (Millipore). […] Reactions were incubated at room temperature for 2 hours followed by addition of 25 uL of stop solution. After a 40-minute incubation at room temperature, 50 uL of Promega detection mix was added followed by incubation for 1 hour at room temperature. Plates were then read on Envision plate reader in lunimescence mode. Data was converted to % inhibition using the following equation below:
[formula] where S is the sample luminescence, Pos is a positive control without added PI3K, Neg is the negative control without added compound. Data was then plotted as % inhibition vs compound concentration.

As to `CC(C)n1c([C@H](C)Nc2ncnc(N)c2C#N)cc2cccc(-c3ccc(=O)n(C)c3)c2c1=O` [Compound AA, reference compound], the IC50 was 0.0001 µM at PI3K-δ in RAJI cells; 0.102 µM on PI3K-β in 786-O cells; below 0.1 µM at PI3K-delta; 1.9 µM on PI3K-α in SKOV-3 cells; 0.418 µM in data set [5]. In addition, in the data set with human T cells, the “inhibition of IFN-γ” value was “highly selective inhibitor of IFN-γ”. For the same compound, the “IC50, CXCL12 induced p-AKT” value in data set [1] (differentiated and M1 polarized macrophage) was “did not significantly inhibit”; in data set [1] (differentiated and M2 polarized macrophage) it was “did not significantly inhibit”. Besides, the “Free Plasma Conc” value in [2] (p.o. 0.2 mg/kg, 1.5h) is recorded as “BLQ”. Moreover, the concentration at 1.5 h amounted to 1.8 nM in data set [2] (p.o. 1 mg/kg, 1.5h) and 17.8 nM in [2] (p.o. 5 mg/kg, 1.5h). In addition, the figures for the concentration at […] in data set [2] (p.o. 1 mg/kg) and in [2] (p.o. 5 mg/kg) were 1.1 nM and 4.6 nM, respectively. In addition, the “IL-8 induced neutrophil migration” value in [3] is given as “does not inhibit IL-8 induced neutrophil migration”. The “neutrophil in bronchoalveolar lavage fluid (BALF)” value in data set [4] is “reduced neutrophil”. The gamma/delta selectivity ratio result at PI3K δ was “greater than 50”.

The values above are taken from US9775844B2, “Heterocyclic compounds and uses thereof” (Infinity Pharmaceuticals, Inc., priority 2014, dated 2017).
